IC50 data for eight compounds are collected here from paper PMC12736086, “Synthesis and In Vitro Evaluation of Anticancer Activity of Fluorophenyl Derivatives of 1,3,4-Thiadiazole Against Estrogen-Dependent Breast Cancer” (Molecules, 2025).

One assay concerns MCF-7 cell line. On the set-up: method as in PMID 35335177. The settings on record: MCF-7, previous study; cited from earlier work.
Assay [1] has as its system MDA-MB-231 (triple-negative) breast cancer cell line. The assay can be described thus: MTT assay, cell viability of MDA-MB-231 cells. In kind it is cell-based, human. The settings on record: 24 h exposure. The procedure:
(§1) To investigate how the tested compounds affect cell viability, experiments were performed using two human breast cancer cell lines—MDA-MB-231 and MCF-7 and human fibroblasts—HMF (normal cells). The MDA-MB-231 cell line represents a highly invasive, triple-negative breast cancer (TNBC) model, lacking estrogen receptor (ER), progesterone receptor (PR), and HER2 expression. In contrast, MCF-7 cells are estrogen receptor-positive (ER+), less invasive, and hormone-responsive, making them a well-established model for luminal-type breast cancer and hormone therapy research. Anastrozole, an aromatase inhibitor, served as a reference drug. The MTT assay applied in this study relies on mitochondrial dehydrogenase enzymes to reduce a water-soluble […] tetrazolium salt (3-(4,5-dimethylthiazol-2-yl)-2,5-diphenyltetrazolium bromide, or MTT) into a dark blue, insoluble formazan compound. The amount of this formazan product formed is directly related to the mitochondrial activity of viable, metabolically active cells in the sample. The efficacy of the compounds was assessed based on IC50 values and analysis of the concentration-dependence of cell survival.
(§2) The experiments were conducted using MDA-MB-231 and MCF-7 human breast cancer cell lines, as well as human fibroblasts (HMF). All cell lines were sourced from the American Type Culture Collection (ATCC; Manassas, VA, USA). Cells were maintained under standard culture conditions (37 °C, 5% CO2). Breast cancer cells were grown in Dulbecco’s Modified Eagle Medium (DMEM) supplemented with 10% fetal bovine serum (FBS), while fibroblasts were cultured in Eagle’s Minimum Essential Medium (EMEM) with the same serum concentration. To prevent microbial contamination, penicillin (100 U/mL) and streptomycin (100 µg/mL) were added to the media. All cell culture reagents were obtained from Sigma Aldrich (St. Louis, MO, USA).
(§3) Cell viability was evaluated using the MTT assay kit (Sigma Aldrich, St. Louis, MO, USA). On day one of the experiment, MCF-7, MDA-MB-231 cells and human fibroblasts were seeded into 96-well culture plates (Nunc, Roskilde, Denmark) at a density of 1 × 10^5 cells/mL (human fibroblast cell line) and 5 × 10^4 cells/mL (MCF-7, MDA-MB-231 cell lines). After 24 h of incubation, the culture medium was removed and replaced with serial dilutions of test compounds or anastrozole (1, 12.5, 25, 50, 100 µM). Control wells received fresh medium only. Cells were incubated for another 24 h under standard conditions. Following this, 15 µL of MTT solution (5 mg/mL) was added to each well and incubated for 3 h. Afterward, a 10% sodium dodecyl sulfate (SDS) solution was added, and the plates were left overnight. On the following day, absorbance was measured at 570 nm using a microplate reader (Epoch, BioTek Instruments, Inc., Winooski, VT, USA) with Gen5 software (version 2.01, BioTek Instruments).
(§4) Data were analyzed using GraphPad software version 5.01 (GraphPad Software, Inc., La Jolla, CA, USA). Results are expressed as means ± standard deviation (±SD). IC50 values were calculated using the IC50 calculator provided by AAT Bioquest.
(In general: Formazan colour is commonly taken as a measure of viable cells.)

For assay [2], the system named is MCF-7 (estrogen-dependent) breast cancer cell line. The assay can be described thus: MTT assay, cell viability of MCF-7 cells. The settings on record: Homo sapiens, MCF7, 24 h, 24 h exposure. It counts as cell-based. The protocol:
as §1, §2, §3, §4

Another assay has as its system human fibroblasts (HMF). The assay can be described thus: MTT assay, cell viability of normal HMF fibroblasts. The settings on record: Fibroblast, 24 h, 24 h exposure. In kind it is cell-based. The procedure:
as §1, §2, §3, §4

Turning to `COc1cccc(-c2nnc(Nc3ccccc3C(F)(F)F)s2)c1` [2-(2-trifluoromethylphenylamino)-5-(3-methoxyphenyl)-1,3,4-thiadiazole], the IC50 in the assay with MCF-7 cell line was 49.6 µM.
Regarding `Fc1cccc(-c2nnc(Nc3ccccc3I)s2)c1` [A1, 5-(3-Fluorophenyl)-2-(2-iodophenylamino)-1,3,4-thiadiazole], the IC50 in assay [1] (Homo sapiens, MDA-MB-231, 24 h) was above 100 µM; in assay [2], 66 µM; in the assay with human fibroblasts (HMF), 51 µM.
The matching figures for `Fc1cccc(-c2nnc(Nc3ccccc3Br)s2)c1` [A2, 2-(2-Bromophenylamino)-5-(3-fluorophenyl)-1,3,4-thiadiazole]: above 100 µM, 52.4 µM and 36.5 µM.
The matching figures for `Fc1cccc(-c2nnc(Nc3ccccc3Cl)s2)c1` [A3, 2-(2-Chlorophenylamino)-5-(3-fluorophenyl)-1,3,4-thiadiazole]: above 100 µM, 54.8 µM and 36.9 µM.
Turning to `CC(C)(C#N)c1cc(Cn2cncn2)cc(C(C)(C)C#N)c1` [Anastrozole, reference compound], the IC50 was above 100 µM in assay [1]; at least 100 µM in assay [1] (Homo sapiens, MDA-MB-231, 24 h); above 100 µM in assay [2]; above 100 µM with human fibroblasts (HMF).
Regarding `Fc1ccc(-c2nnc(Nc3ccccc3I)s2)cc1` [B1, 5-(4-Fluorophenyl)-2-(2-iodophenylamino)-1,3,4-thiadiazole], the IC50 in assay [1] (Homo sapiens, MDA-MB-231, 24 h) was above 100 µM; in assay [2] it was 53.9 µM; in the assay with human fibroblasts (HMF), 45.6 µM.
The matching figures for `Fc1ccc(-c2nnc(Nc3ccccc3Br)s2)cc1` [B2, 2-(2-Bromophenylamino)-5-(4-fluorophenyl)-1,3,4-thiadiazole]: above 100 µM, 82.5 µM and 41.8 µM.
The corresponding values for `Fc1ccc(-c2nnc(Nc3ccccc3Cl)s2)cc1` [B3, 2-(2-Chlorophenylamino)-5-(4-fluorophenyl)-1,3,4-thiadiazole] are above 100 µM, 54.1 µM and above 100 µM.

As usually defined, the IC50 is the point on the concentration scale where inhibition reaches its midpoint.
